Active and inactive are the calls of the source.
What was measured:
[1] = molecular target: Ion channel NompC (Danio rerio, UniProt Q7T1G6); assay: Fluorescence counterscreen assay for TRPML3 agonists: dose response cell-based high-throughput screening assay to identify agonists of the transient receptor potential channel N1 (TRPN1). [Related pubchem assays: 1526, 1424, 1448 ]; assay type: functional
[2] = molecular target: Mucolipin-3 (Homo sapiens, UniProt Q8TDD5); assay: Dose response cell-based high-throughput screening assay for agonists of the transient receptor potential channel ML3 (TRPML3). [Related pubchem assays: 1526, 1424, 1448 ]; assay type: functional
[3] = molecular target: T1, G-protein coupled receptor 35 (Homo sapiens, UniProt Q9HC97); assay: SAR analysis of Antagonists of the GPR35 Receptor using an Image-Based Assay - Set 3. [Related pubchem assays (depositor defined):AID2013, AID2026]; assay type: functional
[4] = molecular target: T2, G-protein coupled receptor 55 (Homo sapiens, UniProt Q9Y2T6); assay: GPR55 antagonists blocking LPI-driven arrestin recruitment, primary screen, imaging, U2OS, beta-arrestin-GFP, LPI agonist (AID 2013); assay type: functional;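 note: antagonist potency measured as reduced agonist-driven arrestin aggregation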
[5] = molecular target: T3, Cannabinoid receptor 1 (Homo sapiens, UniProt P21554); assay: SAR analysis of agonists of the Cannabinoid Receptor 1 using an Image-Based Assay - Set 2. [Related pubchem assays (depositor defined):AID2013, AID2026]; assay type: functional
[6] = molecular target: T4, Cannabinoid receptor 2 (Homo sapiens, UniProt P34972); assay: SAR analysis of antagonists of the Cannabinoid Receptor 2 using an Image-Based Assay. [Related pubchem assays (depositor defined):AID2013, AID2026]; assay type: functional
[7] = molecular target: T2, G-protein coupled receptor 55; assay: GPR55 antagonist potency of analogs, SAR follow-up, imaging, U2OS, beta-arrestin-GFP, LPI agonist, set 2 (AID 2820); assay type: functional
[8] = molecular target: T4, Cannabinoid receptor 2; assay: SAR analysis of agonists of the Cannabinoid Receptor 2 using an Image-Based Assay. [Related pubchem assays (depositor defined):AID2013, AID2026]; assay type: functional
[9] = molecular target: T3, Cannabinoid receptor 1; assay: SAR analysis of antagonists of the Cannabinoid Receptor 1 using an Image-Based Assay - Set 2. [Related pubchem assays (depositor defined):AID2013, AID2026]; assay type: functional
[10] = molecular target: T1, G-protein coupled receptor 35; assay: SAR analysis of Agonists of the GPR35 Receptor using an Image-Based Assay - Set 2. [Related pubchem assays (depositor defined):AID2013, AID2026]; assay type: functional
[11] = system: BJ; assay: cytotoxicity toward BJ-TERT fibroblasts, dose response, cell-based, RAS-independent, luminescence (AID 1933); assay type: functional; settings: Homo sapiens
[12] = molecular target: T5, Nuclear receptor subfamily 0 group B member 1 (Homo sapiens, UniProt P51843); assay type: functional, cell-based;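 note: HEK293T cells transfected with SF-1 and DAX-1 plus StAR promoter luciferase reporter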
T5 sequence (P51843 whole entry): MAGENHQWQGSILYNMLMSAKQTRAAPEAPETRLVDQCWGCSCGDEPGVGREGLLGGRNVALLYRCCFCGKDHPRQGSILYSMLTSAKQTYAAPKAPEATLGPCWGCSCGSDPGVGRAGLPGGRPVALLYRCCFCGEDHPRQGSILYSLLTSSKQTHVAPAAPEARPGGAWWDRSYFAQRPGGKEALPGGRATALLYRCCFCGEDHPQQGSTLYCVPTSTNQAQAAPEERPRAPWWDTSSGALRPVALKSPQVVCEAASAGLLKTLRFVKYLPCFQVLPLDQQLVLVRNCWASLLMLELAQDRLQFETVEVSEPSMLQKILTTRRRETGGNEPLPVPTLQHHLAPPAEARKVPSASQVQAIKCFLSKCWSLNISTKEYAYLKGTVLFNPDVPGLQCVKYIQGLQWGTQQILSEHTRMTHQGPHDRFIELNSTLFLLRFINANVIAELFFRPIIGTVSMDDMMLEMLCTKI

[13] = Luminescence Cell-Based Dose Response HTS to Identify Inhibitors of Luciferase Translation or Activity in H4-C Neuroglioblastoma Cells. [Related pubchem assays: 1813 (Primary HTS), 1827 (Project Summary)]; assay type: functional
[14] = cells; assay type: functional, cell-based
[15] = system: BJ; assay: cells; assay type: functional, cell-based; settings: Homo sapiens
[16] = cytotoxicity toward DRD oncogenic fibroblasts, dose response, cell-based, non-viral oncogenic, luminescence (AID 1934); assay type: functional; settings: Homo sapiens
[17] = Luminescence Cell-Based Dose Confirmation HTS to Identify Inhibitors of 5'UTR Stem-Loop Driven Alpha-Synuclein mRNA Translation in H4 Neuroglioblastoma Cells. [Related pubchem assays: 1827 (Project Summary), 1813 (Primary HTS)]; assay type: functional
[18] = Luminescence Cell-Based Dose HTS Response to Identify Inhibitors of 5'UTR Stem-Loop Driven Prion Protein mRNA Translation in H4-C Neuroglioblastoma Cells. [Related pubchem assays (depositor defined):AID1814, AID1827]; assay type: functional
[19] = Luminescence Cell-Based Dose Response HTS to Identify Activators of Luciferase Translation or Activity in H4-C Neuroglioblastoma Cells. [Related pubchem assays: 1829 (Project Summary), 1814 (Primary HTS)]; assay type: functional
[20] = inhibitors of SNCA 5'UTR-driven reporter translation, confirmation, H4 neuroglioma cells, luminescence (AID 1988); assay type: functional, cell-based
[21] = Luminescence Cell-Based Dose Response HTS to Identify Inhibitors of 5'UTR Stem-Loop Driven Prion Protein mRNA Translation in H4 Neuroglioblastoma Cells. [Related pubchem assays: 1827 (Project Summary), 1813 (Primary HTS)]; assay type: functional
[22] = Luminescence Cell-Based Dose Response HTS to Identify Activators of 5'UTR Stem-Loop Driven Prion Protein mRNA Translation in H4-C Neuroglioblastoma Cells. [Related pubchem assays: 1829 (Project Summary), 1814 (Primary HTS)]; assay type: functional
[23] = system: BJ; assay: cytotoxicity toward Ras-transformed BJeLR fibroblasts, dose response, cell-based, alamar blue fluorescence, cherrypicked samples (AID 2631); assay type: functional; settings: Homo sapiens;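 note: confirmatory dose-response assay in RAS-dependent BJ fibroblasts engineered with TERT, LT and ST, with cytotoxicity read by fluorescence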
[24] = system: BJ; assay: cytotoxicity toward BJ-TERT-LT-ST fibroblasts, dose response, cell-based, RAS-independent, luminescence (AID 1935); assay type: functional; settings: Homo sapiens;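 note: BJ fibroblasts immortalized with TERT plus LT and ST oncogenes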
[25] = molecular target: T6, Tyrosine-protein phosphatase non-receptor type 22 (Homo sapiens, UniProt Q9Y2R2); assay type: functional
[26] = molecular target: T6, Tyrosine-protein phosphatase non-receptor type 22; assay type: functional; remark: listed apart in the source
[27] = molecular target: Tyrosine-protein phosphatase non-receptor type 7 (Homo sapiens, UniProt P35236); assay type: functional
[28] = molecular target: T7, Calpain-2 catalytic subunit (Sus scrofa, UniProt P43367); assay: pig calpain II inhibitor potency, dose response, biochemical, fluorogenic peptide substrate (AID 1420); assay type: functional
T7 sequence (P43367 whole entry): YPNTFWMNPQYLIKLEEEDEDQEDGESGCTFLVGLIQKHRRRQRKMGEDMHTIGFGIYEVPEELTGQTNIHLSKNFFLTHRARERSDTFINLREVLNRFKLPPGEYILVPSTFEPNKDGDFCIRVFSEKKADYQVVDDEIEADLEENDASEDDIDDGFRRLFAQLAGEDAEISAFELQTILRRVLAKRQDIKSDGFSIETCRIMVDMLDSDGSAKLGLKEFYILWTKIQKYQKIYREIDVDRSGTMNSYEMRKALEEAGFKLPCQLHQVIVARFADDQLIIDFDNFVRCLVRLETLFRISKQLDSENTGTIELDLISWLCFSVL

T2 sequence (Q9Y2T6 whole entry): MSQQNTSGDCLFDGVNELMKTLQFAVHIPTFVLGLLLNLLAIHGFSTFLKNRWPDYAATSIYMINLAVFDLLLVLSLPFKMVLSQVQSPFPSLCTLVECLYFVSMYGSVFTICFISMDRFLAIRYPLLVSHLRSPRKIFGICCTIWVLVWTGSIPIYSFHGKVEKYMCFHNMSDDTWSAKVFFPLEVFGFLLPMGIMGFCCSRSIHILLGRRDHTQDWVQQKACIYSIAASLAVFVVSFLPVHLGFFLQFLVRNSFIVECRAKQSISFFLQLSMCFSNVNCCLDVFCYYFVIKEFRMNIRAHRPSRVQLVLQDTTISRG
T6 sequence (Q9Y2R2 whole entry): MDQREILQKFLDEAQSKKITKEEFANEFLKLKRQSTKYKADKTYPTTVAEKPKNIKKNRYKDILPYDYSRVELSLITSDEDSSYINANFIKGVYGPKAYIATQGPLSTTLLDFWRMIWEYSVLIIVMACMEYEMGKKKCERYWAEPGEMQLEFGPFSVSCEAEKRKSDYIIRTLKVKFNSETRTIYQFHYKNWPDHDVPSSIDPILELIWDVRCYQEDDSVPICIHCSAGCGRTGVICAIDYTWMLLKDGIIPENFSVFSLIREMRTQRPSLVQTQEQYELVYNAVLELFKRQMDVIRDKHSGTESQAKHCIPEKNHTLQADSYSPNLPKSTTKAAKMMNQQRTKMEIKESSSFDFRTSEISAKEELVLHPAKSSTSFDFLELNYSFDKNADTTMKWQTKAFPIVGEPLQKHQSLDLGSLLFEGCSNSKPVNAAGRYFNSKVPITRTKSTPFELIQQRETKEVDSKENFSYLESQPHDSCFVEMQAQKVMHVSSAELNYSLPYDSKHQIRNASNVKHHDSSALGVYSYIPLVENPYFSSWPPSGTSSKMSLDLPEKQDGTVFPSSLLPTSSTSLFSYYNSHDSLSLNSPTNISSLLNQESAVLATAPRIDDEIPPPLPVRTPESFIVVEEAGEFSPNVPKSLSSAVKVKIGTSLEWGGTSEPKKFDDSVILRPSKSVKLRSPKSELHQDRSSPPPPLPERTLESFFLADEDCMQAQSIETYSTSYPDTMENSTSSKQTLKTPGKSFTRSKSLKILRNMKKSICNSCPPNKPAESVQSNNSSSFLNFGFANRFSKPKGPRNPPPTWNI
T1 sequence (Q9HC97 whole entry): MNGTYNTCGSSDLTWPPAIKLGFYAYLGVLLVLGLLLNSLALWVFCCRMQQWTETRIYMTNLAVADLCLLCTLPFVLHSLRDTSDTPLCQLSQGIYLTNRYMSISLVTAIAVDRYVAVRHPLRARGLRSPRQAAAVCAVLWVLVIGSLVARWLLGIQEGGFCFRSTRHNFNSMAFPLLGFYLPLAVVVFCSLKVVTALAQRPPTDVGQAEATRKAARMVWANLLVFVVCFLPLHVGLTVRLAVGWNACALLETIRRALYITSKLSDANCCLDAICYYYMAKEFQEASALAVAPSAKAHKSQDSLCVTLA
T4 sequence (P34972 whole entry): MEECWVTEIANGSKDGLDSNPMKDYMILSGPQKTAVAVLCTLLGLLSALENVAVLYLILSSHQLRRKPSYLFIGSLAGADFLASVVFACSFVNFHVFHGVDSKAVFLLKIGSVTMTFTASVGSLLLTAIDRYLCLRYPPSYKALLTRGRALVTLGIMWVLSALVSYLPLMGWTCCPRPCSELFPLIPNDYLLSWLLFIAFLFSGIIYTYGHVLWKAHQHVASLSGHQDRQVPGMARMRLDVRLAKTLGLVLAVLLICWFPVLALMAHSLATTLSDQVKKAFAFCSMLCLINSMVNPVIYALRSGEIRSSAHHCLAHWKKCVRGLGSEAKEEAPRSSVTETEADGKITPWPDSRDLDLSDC
T3 sequence (P21554 whole entry): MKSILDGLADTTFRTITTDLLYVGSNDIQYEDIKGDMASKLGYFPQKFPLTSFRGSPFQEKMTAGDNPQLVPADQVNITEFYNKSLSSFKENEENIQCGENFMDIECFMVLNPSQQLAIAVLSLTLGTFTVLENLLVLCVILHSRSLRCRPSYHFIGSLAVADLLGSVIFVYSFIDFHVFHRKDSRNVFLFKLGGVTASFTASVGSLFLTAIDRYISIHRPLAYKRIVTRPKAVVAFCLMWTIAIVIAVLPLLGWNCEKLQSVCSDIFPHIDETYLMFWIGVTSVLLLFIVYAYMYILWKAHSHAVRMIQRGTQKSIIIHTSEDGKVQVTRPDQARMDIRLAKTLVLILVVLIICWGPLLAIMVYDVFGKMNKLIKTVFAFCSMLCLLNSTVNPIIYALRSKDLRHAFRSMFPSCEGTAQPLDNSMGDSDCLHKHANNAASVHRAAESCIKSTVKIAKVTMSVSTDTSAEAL
Sequence of Tyrosine-protein phosphatase non-receptor type 7 (P35236 whole entry): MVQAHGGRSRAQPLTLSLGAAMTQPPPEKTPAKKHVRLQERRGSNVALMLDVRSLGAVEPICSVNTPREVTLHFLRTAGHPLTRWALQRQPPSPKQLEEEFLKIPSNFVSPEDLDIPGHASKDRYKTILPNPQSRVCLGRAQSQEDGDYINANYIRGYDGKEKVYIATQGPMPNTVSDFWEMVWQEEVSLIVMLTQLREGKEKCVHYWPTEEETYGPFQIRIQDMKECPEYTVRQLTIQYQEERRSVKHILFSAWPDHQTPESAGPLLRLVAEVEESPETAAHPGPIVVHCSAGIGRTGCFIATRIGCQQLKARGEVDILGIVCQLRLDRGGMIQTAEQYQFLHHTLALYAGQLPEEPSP
Sequence of Mucolipin-3 (Q8TDD5 whole entry): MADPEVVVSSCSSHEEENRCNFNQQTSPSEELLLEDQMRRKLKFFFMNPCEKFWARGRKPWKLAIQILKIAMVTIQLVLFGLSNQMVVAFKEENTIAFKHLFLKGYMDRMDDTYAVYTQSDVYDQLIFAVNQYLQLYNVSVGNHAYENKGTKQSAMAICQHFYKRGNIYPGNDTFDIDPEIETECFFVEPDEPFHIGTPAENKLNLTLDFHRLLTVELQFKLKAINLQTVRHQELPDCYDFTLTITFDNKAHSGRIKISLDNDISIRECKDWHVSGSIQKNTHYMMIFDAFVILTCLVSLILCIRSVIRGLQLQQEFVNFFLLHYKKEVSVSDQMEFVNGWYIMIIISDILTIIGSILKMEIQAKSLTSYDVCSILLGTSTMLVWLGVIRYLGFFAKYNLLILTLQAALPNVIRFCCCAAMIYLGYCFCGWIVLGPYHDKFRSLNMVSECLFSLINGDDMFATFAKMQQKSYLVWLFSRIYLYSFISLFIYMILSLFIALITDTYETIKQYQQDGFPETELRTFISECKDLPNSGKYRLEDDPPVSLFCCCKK
Sequence of Ion channel NompC (Q7T1G6 whole entry): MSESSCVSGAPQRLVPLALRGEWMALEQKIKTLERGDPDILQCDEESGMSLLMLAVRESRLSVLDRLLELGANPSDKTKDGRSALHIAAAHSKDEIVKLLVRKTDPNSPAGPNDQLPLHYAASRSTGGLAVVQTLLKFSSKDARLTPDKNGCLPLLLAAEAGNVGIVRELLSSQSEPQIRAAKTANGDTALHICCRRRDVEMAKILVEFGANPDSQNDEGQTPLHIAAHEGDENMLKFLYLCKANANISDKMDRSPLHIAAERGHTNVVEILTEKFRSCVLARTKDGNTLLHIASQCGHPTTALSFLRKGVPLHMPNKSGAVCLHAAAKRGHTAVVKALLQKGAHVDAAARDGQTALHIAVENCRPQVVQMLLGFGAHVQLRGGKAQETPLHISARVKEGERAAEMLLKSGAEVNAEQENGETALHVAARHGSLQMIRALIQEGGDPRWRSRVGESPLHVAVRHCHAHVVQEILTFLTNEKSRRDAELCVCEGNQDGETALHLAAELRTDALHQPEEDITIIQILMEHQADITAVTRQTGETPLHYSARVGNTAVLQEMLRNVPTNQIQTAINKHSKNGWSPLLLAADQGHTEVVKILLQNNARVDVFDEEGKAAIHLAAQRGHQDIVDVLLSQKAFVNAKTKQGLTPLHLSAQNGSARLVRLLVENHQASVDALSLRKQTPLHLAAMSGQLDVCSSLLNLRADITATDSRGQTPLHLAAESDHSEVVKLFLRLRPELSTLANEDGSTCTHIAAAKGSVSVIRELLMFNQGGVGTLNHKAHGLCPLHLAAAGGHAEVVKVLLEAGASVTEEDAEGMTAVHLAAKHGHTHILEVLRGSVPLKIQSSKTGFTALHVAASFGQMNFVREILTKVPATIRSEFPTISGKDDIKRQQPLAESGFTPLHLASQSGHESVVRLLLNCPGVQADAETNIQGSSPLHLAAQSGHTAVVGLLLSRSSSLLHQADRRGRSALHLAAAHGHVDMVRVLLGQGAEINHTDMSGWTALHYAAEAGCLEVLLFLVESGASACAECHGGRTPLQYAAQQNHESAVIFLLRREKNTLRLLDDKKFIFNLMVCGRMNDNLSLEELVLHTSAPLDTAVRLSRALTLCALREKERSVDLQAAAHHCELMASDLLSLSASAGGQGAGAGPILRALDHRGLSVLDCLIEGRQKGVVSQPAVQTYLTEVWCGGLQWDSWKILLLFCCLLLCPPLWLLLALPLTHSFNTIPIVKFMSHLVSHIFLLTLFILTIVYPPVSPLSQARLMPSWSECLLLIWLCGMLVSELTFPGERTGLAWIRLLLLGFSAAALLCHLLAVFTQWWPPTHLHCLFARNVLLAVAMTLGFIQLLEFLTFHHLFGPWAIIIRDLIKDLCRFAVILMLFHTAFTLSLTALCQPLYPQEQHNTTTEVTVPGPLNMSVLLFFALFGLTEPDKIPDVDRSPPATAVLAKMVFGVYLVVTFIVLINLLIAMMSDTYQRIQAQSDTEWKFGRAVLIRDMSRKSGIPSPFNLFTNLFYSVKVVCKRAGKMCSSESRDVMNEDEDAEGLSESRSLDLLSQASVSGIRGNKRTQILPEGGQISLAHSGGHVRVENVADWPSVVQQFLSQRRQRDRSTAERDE

## COc1ccc(S(=O)(=O)Nc2ccc(C)cc2)cc1N(C)S(=O)(=O)c1ccc(Cl)cc1
[1]
  EC50: > 29.9 µM (not active)
[2]
  EC50: 6.67 µM (active)
[3]
  IC50: > 32 µM (inactive)
[4]
  IC50: 1.8 µM (active)
[5]
  EC50: > 32 µM (inactive)
[6]
  IC50: > 32 µM (inactive)
[7]
  IC50: 0.992 µM (active)
[8]
  EC50: > 32 µM (inactive)
[9]
  IC50: 5.95 µM (active)
[10]
  EC50: > 32 µM (inactive)

## CCc1ccc(CNC(=O)Cc2ccc(NC(=O)C3=C(C)OCCS3)cc2)cc1
[11]
  EC50: 7.66 µM (inconclusive)
[12]
  IC50: > 67.5 µM (inactive)
[13]
  EC50: 51.1 µM (active)
[14]
  IC50: > 67.5 µM (inactive)
[15]
  EC50: 23.3 µM (active)
[16]
  EC50: 10.7 µM (inconclusive)
[17]
  EC50: > 195 µM (not active)
[18]
  EC50: 0.592 µM (active)
[19]
  EC50: 51.1 µM (inconclusive)
[20]
  EC50: 0.899 µM (active)
[21]
  EC50: 104 µM (active)
[22]
  EC50: 0.592 µM (inconclusive)
[23]
  EC50: 0.379 µM (active)
[24]
  EC50: 3.01 µM (active)

## O=C(Nc1ccc(Cl)cc1)c1ccc(OC2CSC2)cc1
[25]
  IC50: > 79.4 µM (inactive)
[26]
  IC50: > 79.4 µM (inactive)
[27]
  IC50: > 79.4 µM (inactive)
[28]
  IC50: 16.7 µM (not active)
